# According to US12503484B2, “Androstane derivatives with activity as pure or predominantly pure stimulators of SERCA2a for the treatment of heart failure” (Seismic Pharmaceuticals, priority 2019, dated 2025):
# Where two headings read alike, the source gives them in different places.
# Experiments:
# STZ diabetic rats = experiment: Haemodynamics in streptozotocin diabetic rats (echocardiography); assay type: in vivo, rat
# Protocol: CVie214 and CVie216 were tested in a diabetic rat model. Briefly, rats were injected with streptozotocin (STZ). After 7-9 weeks from STZ injection, rats were submitted to transthoracic echocardiographic and Doppler evaluation performed under urethane anesthesia. Two-dimensionally guided M-mode recordings were used to obtain short-axis measurements of left ventricular end-diastolic diameter (LVEDD), left ventricular end-systolic diameter (LVESD), posterior (PW) and septal (SW) diastolic wall thickness according to the American Society of Echocardiography guidelines (Lang R M et al., Eur J Echocardiography 2006, 7:79-108). Fractional shortening was calculated as FS=(LVEDD−LVESD)/LVEDD. Relative wall thickness was calculated as PWTd+IVSTd/LVEDD. Mitral inflow was measured by pulsed Doppler at the tips of mitral leaflets from an apical 4-chamber view to obtain early and late filling velocities (E, A) and deceleration time of early filling velocity (DT). The deceleration slope was calculated as E/DT ratio. The mitral deceleration index was calculated as DT/E ratio. Tissue Doppler Imaging (TDI) was evaluated from the apical 4-chamber view to record septal mitral annular movements, i.e., peak myocardial systolic (s′) and early and late diastolic velocity (e′ and a′).
# After baseline hemodynamic measurements were taken, the rats were administered Digoxin, CVie214, CVie216 and compared to control. Digoxin, used as reference drug, was intravenously infused at 0.11 mg/kg/min for 15 min and echocardiographic parameters measured after 1 h. CVie214-salt and CVie216-salt were intravenously infused in STZ diabetic rats at 0.2 mg/kg/min and echocardiographic parameters were measured after 15 min and 30 min.
# Tables 4-6 show the haemodynamic parameters in STZ diabetic rats for Digoxin, CVie214-salt, and Cvie216-salt.
# SERCA2a = SERCA2a (Cavia porcellus, UniProt A0A286XD73); conditions: literature; cited from earlier work
# SERCA2a, sequence (A0A286XD73 1-997): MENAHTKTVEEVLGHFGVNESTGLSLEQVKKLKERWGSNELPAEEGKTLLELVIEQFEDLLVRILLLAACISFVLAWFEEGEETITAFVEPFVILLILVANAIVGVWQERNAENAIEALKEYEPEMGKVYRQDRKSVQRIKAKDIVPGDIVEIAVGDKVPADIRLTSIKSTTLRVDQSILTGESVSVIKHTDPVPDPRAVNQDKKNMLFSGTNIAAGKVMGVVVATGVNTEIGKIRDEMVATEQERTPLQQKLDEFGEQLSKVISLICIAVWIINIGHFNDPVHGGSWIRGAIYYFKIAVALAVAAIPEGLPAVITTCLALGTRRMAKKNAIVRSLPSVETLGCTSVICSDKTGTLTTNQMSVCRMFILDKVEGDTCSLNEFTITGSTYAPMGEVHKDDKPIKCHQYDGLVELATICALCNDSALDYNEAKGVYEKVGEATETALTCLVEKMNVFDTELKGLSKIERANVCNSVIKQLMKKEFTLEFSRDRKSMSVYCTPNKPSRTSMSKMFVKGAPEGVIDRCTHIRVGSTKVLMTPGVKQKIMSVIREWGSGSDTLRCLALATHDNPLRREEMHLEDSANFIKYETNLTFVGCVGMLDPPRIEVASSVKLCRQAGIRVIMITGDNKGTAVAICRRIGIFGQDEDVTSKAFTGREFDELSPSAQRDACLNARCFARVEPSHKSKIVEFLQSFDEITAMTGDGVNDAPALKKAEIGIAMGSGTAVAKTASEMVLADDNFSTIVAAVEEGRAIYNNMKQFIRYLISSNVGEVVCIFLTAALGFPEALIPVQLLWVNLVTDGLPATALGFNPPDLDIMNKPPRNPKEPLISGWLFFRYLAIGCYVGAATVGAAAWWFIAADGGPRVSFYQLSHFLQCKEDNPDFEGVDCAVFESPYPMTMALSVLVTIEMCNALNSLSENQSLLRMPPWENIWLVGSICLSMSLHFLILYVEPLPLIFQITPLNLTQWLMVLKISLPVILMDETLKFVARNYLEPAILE
# [1] = test system: mouse (Albino Swiss CD-1); conditions: data from literature, cited from earlier work
# [2] = molecular target: dog renal Na^+/K^+ ATPase (Canis lupus familiaris (Dog) (Canis familiaris), UniProt P50997); conditions: read-out: IC50 inhibition of dog renal Na+/K+ ATPase; purified dog kidney enzyme;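 note: enzyme preincubated with inhibitor 10 min at 37 °C, then K^+ and ^32P-ATP added for 15 min, released ^32P counted, activity relative to untreated control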
# [3] = test system: rat ventricular myocytes isolated from STZ rats; conditions: literature; cited from earlier work
# [4] = after 15 min Digoxin IV infusion 0.11 mg/kg/min
compound,measurement,setting,value
"C[C@H]1O[C@@H](O[C@H]2[C@@H](O)C[C@H](O[C@H]3[C@@H](O)C[C@H](O[C@H]4CC[C@@]5(C)[C@H](CC[C@@H]6[C@@H]5C[C@@H](O)[C@]5(C)[C@@H](C7=CC(=O)OC7)CC[C@]65O)C4)O[C@@H]3C)O[C@@H]2C)C[C@H](O)[C@@H]1O [Digoxin, reference compound]",diastolic function (in words),STZ diabetic rats; IV infusion,ameliorated diastolic function
same,"overall cardiac function, SV and CO (in words)",STZ diabetic rats; IV infusion,did not affect
same,A late filling velocity of mitral inflow,STZ diabetic rats; [4],0.79 ± 0.19 m/s
same,CO cardiac output,STZ diabetic rats; [4],155.6 ± 45.7 mL/min
same,DT deceleration time of E wave,STZ diabetic rats; [4],44.1 ± 10.29 ms
same,DT/E mitral deceleration index,STZ diabetic rats; [4],50.18 ± 17.05 s2/m
same,E early filling velocity of mitral inflow,STZ diabetic rats; [4],0.92 ± 0.19 m/s
same,E/A index of LV function,STZ diabetic rats; [4],1.20 ± 0.21
same,E/DT deceleration slope,STZ diabetic rats; [4],22.66 ± 9.56 m/s2
same,E/e′ index of LV filling pressure,STZ diabetic rats; [4],38.95 ± 7.31
same,FS fractional shortening,STZ diabetic rats; [4],53.1 ± 5.6*6%
same,HR heart rate,STZ diabetic rats; [4],257 ± 36 beat/min
same,SV stroke volume,STZ diabetic rats; [4],0.6 ± 0.12 ml/beat
same,a′ TDI late relaxation velocity,STZ diabetic rats; [4],29.78 ± 6.17 cm/s
same,e′ TDI early relaxation velocity,STZ diabetic rats; [4],23.82 ± 2.87 cm/s
same,s′ TDI contraction velocity,STZ diabetic rats; [4],26.03 ± 4.66 cm/s
same,stimulation of SERCA2a activity (in words),SERCA2a,failed to stimulate
same,LD50,[1]; iv,7.7 mg/kg
same,LD50,[1]; os,17.8 mg/kg
same,IC50,[2],180 nM
same,effect detected by the SR loading protocol,[3],did not detect any effect
